Measurements published in PMC11868595, “Safety, pharmacokinetics and efficacy of HA121-28 in patients with advanced solid tumors and RET fusion-positive non-small-cell lung cancer: a multicenter, open-label, single-arm phase 1/2 trial” (Signal Transduction and Targeted Therapy, 2025).

Test system: patients with advanced solid tumors
Test: Phase 1 trial: adverse events (CTCAE), DLT and MTD
Format: in vivo, human
Experimental: The phase 1 trial was a two-part, multicenter, open-label, nonrandomized study to evaluate the safety and preliminary efficacy of HA121-28.
Safety, tolerability, and PK of HA121-28 was assessed in dose-escalation part. The single-patient accelerated titration was carried out at 25 mg and 50 mg; then, the dose escalation proceeded according to a “3 + 3” design in dose range of 100 to 800 mg. Escalation to a higher dose level was considered by the satisfactory review of safety results from the previous lower dose during the first cycle.
The dose-expansion part aims to further access the safety and efficacy of HA121-28 at the selected doses based on data from the dose-escalation part. The RP2D was determined by investigators in view of a thorough review of safety, PK, and efficacy results.
In phase 1 trial, during the dose-escalation part, patients first administered HA121-28 in a single ascending dose under the fasted state, then followed up for seven days. Then, patients received ascending doses of HA121-28 (q.d.) on a 21-day on and 7-day off treatment scheme for a 28-day cycle. For patients deemed beneficial from the treatment by investigators, treatment could remain until disease progression, or they discontinued from the study. In the dose-expansion part of phase 1, as well as phase 2, patients received HA121-28 (q.d.) at the selected doses on a 21-day on and 7-day off treatment scheme until disease progression, or they discontinued from the study.
Treatment-emergent adverse events (TEAEs) were documented during the entire study period. The predefined adverse event of special interest (AESI) was ≥ grade 3 prolonged QT interval. Tumor imaging was performed using contrast-enhanced computed tomography or magnetic resonance imaging at screening, Day 28 of the first cycle, then approximately every eight weeks till the end of the study for phase 1; in phase 2, imaging was scheduled at screening, and every eight weeks during the first 40 weeks, followed by every 12 weeks for the rest of the study period. RECIST 1.1 was used by the independent review committee or investigators for assessment of tumor response. After the original assessment, a repeated assessment was required around four weeks later to confirm a complete or partial response.
The primary endpoints of phase 1 were to investigate the MTD, dose-limiting toxicities, and the incidence and severity of TEAEs. Each TEAE was graded according to the Common Terminology Criteria for Adverse Events (CTCAE, version 5.0) and coded by Medical Dictionary for Regulatory Activities (MedDRA, version 21.0). The secondary endpoints included calculating PK parameters, assessing the ORR and DCR at the recommended dose by investigators as per RECIST 1.1. The exploratory endpoint was PFS.
If grade 2 or higher toxicity related to the study drug occurs in Groups 1 and 2 (as determined by the investigator), dose escalation will proceed using a 3+3 design starting from that dose level. If no DLT is observed at the 800 mg/d dose level after dose escalation, a meeting of investigators will be convened to decide whether to proceed with further dose escalation based on the available PK data, safety, and tolerability information.
5. Definition of DLT and MTD
The following events related to the study drug (including those that are definitely related, highly likely to be related, and possibly related):
(1) Grade 4 hematologic toxicity or grade 3 neutropenia accompanied by a fever of 38.5℃ or higher, or grade 3 thrombocytopenia accompanied by severe bleeding.
(2) Patients who discontinued the medication for more than 7 days due to unresolved toxicity reactions or who discontinued the medication more than twice due to toxicity […]
(3) In the context of supportive treatment, diarrhea of grade 2 lasting more than 7 days, or grade 3 diarrhea lasting more than 3 days.

In the case of `COc1cc2c(Nc3ccc(Br)cc3F)ncnc2cc1OCCCCN(C)C.Cl.Cl` [HA121-28, N-(4-bromo-2-fluorophenyl)-7-(4-(dimethylamino)butoxy)-6-methoxy quinazolin-4-amine dihydrochloride], the “Serious TRAE: Drug eruption” value (Phase 1, 600 mg (N=64)) is reported as 1 (1.6) No. (%), the “Serious TRAE: Dyspnea” value (Phase 1, 600 mg (N=64)) is reported as 0 No. (%) and the “Serious TRAE: Embolism” value (Phase 1, 600 mg (N=64)) is reported as 0 No. (%). For the same compound, the “Serious TRAE: Erythema multiforme” value (Phase 1, 600 mg (N=64)) was 0 No. (%), the “Serious TRAE: Headache” value (Phase 1, 600 mg (N=64)) was 0 No. (%) and the “Serious TRAE: Hemoptysis” value (Phase 1, 600 mg (N=64)) was 1 (1.6) No. (%). For the same compound, the “Serious TRAE: Hydronephrosis” value (Phase 1, 600 mg (N=64)) was 0 No. (%), the “Serious TRAE: Hypertension” value (Phase 1, 600 mg (N=64)) was 0 No. (%) and the “Serious TRAE: Hypoalbuminemia” value (Phase 1, 600 mg (N=64)) was 1 (1.6) No. (%). The “Serious TRAE: Intestinal obstruction” value (Phase 1, 600 mg (N=64)) was 0 No. (%), the “Serious TRAE: Intra-abdominal fluid collection” value (Phase 1, 600 mg (N=64)) was 0 No. (%) and the “Serious TRAE: Intracranial tumor hemorrhage” value (Phase 1, 600 mg (N=64)) was 0 No. (%). The “Serious TRAE: Liver injury” value (Phase 1, 600 mg (N=64)) was 0 No. (%), the “Serious TRAE: Lung adenocarcinoma” value (Phase 1, 600 mg (N=64)) was 0 No. (%) and the “Serious TRAE: Malignant neoplasm progression” value (Phase 1, 600 mg (N=64)) was 1 (1.6) No. (%). For the same compound, the “Serious TRAE: Multiple organ dysfunction syndrome” value (Phase 1, 600 mg (N=64)) was 0 No. (%), the “Serious TRAE: Nausea” value (Phase 1, 600 mg (N=64)) was 2 (3.1) No. (%) and the “Serious TRAE: Nephrolithiasis” value (Phase 1, 600 mg (N=64)) was 0 No. (%). The “Serious TRAE: Platelet counts decreased” value (Phase 1, 600 mg (N=64)) was 0 No. (%), the “Serious TRAE: Pleural effusion” value (Phase 1, 600 mg (N=64)) was 0 No. (%) and the “Serious TRAE: Pneumonia” value (Phase 1, 600 mg (N=64)) was 0 No. (%). The “Serious TRAE: Pneumonitis” value (Phase 1, 600 mg (N=64)) was 0 No. (%), the “Serious TRAE: Prolonged QT interval” value (Phase 1, 600 mg (N=64)) was 1 (1.6) No. (%) and the “Serious TRAE: Pulmonary embolism” value (Phase 1, 600 mg (N=64)) was 0 No. (%). The “Serious TRAE: Pyrexia” value (Phase 1, 600 mg (N=64)) was 0 No. (%), the “Serious TRAE: Rash” value (Phase 1, 600 mg (N=64)) was 3 (4.7) No. (%) and the “Serious TRAE: Rectal hemorrhage” value (Phase 1, 600 mg (N=64)) was 0 No. (%). For the same compound, the “Serious TRAE: Respiratory failure” value (Phase 1, 600 mg (N=64)) was 0 No. (%), the “Serious TRAE: Seizure” value (Phase 1, 600 mg (N=64)) was 0 No. (%) and the “Serious TRAE: Septic shock” value (Phase 1, 600 mg (N=64)) was 0 No. (%). For the same compound, the “Serious TRAE: Sudden cardiac arrest” value (Phase 1, 600 mg (N=64)) was 1 (1.6) No. (%), the “Serious TRAE: Sudden death” value (Phase 1, 600 mg (N=64)) was 1 (1.6) No. (%) and the “Serious TRAE: Upper respiratory tract infection” value (Phase 1, 600 mg (N=64)) was 0 No. (%). For the same compound, the “Serious TRAE: Ventricular tachycardia” value (Phase 1, 600 mg (N=64)) was 1 (1.6) No. (%), the “Serious TRAE: Vomiting” value (Phase 1, 600 mg (N=64)) was 2 (3.1) No. (%) and the “Serious TRAE: Weight loss” value (Phase 1, 600 mg (N=64)) was 2 (3.1) No. (%). The “Serious TEAE: ALT increased” value (Phase 1, 800 mg (N=3)) was 0 No. (%), the “Serious TEAE: AST increased” value (Phase 1, 800 mg (N=3)) was 0 No. (%) and the “Serious TEAE: Abdominal Pain” value (Phase 1, 800 mg (N=3)) was 0 No. (%). The “Serious TEAE: Abdominal distension” value (Phase 1, 800 mg (N=3)) was 0 No. (%), the “Serious TEAE: Acute cholecystitis” value (Phase 1, 800 mg (N=3)) was 0 No. (%) and the “Serious TEAE: Acute pancreatitis” value (Phase 1, 800 mg (N=3)) was 0 No. (%). For the same compound, the “Serious TEAE: Anal abscess” value (Phase 1, 800 mg (N=3)) was 0 No. (%), the “Serious TEAE: Any” value (Phase 1, 800 mg (N=3)) was 1 (33.3) No. (%) and the “Serious TEAE: Aortic intramural hematoma” value (Phase 1, 800 mg (N=3)) was 0 No. (%). For the same compound, the “Serious TEAE: Arrhythmia” value (Phase 1, 800 mg (N=3)) was 0 No. (%), the “Serious TEAE: Blood bilirubin increased” value (Phase 1, 800 mg (N=3)) was 0 No. (%) and the “Serious TEAE: Blood creatinine increased” value (Phase 1, 800 mg (N=3)) was 0 No. (%). The “Serious TEAE: COVID-19” value (Phase 1, 800 mg (N=3)) was 0 No. (%), the “Serious TEAE: Cardiac tamponade” value (Phase 1, 800 mg (N=3)) was 0 No. (%) and the “Serious TEAE: Coronary artery atherosclerosis” value (Phase 1, 800 mg (N=3)) was 0 No. (%). The “Serious TEAE: Death” value (Phase 1, 800 mg (N=3)) was 0 No. (%), the “Serious TEAE: Diarrhea” value (Phase 1, 800 mg (N=3)) was 0 No. (%) and the “Serious TEAE: Drug eruption” value (Phase 1, 800 mg (N=3)) was 0 No. (%). For the same compound, the “Serious TEAE: Dyspnea” value (Phase 1, 800 mg (N=3)) was 0 No. (%), the “Serious TEAE: Embolism” value (Phase 1, 800 mg (N=3)) was 0 No. (%) and the “Serious TEAE: Erythema multiforme” value (Phase 1, 800 mg (N=3)) was 0 No. (%).
